Experimental data from patent publication US20090124631A1, “Combination Therapy” (priority 2007, published 2009).

How the values were obtained:
[1] = tested on: MT3 transcription in human T-cell leukemia Jurkat-T cells; test: MT3 transcription in Jurkat-T cells, real time RT-PCR; format: cell-based; conditions: 24 hours
Method: Total RNAs were extracted from cell pellets or from tumors using QiaShredder and RNeasy mini kit (Qiagen). 1 μg RNA was converted into cDNA using Expand RT enzyme (Roche) and Oligo(dT) primers (Invitrogen) in a 20 μl reaction volume. For quantitative real-time PCR, the primers used for MT3 were [NT] and [NT] and those for β-actin were [NT] and [NT]. Reactions with either pair of primers included an annealing temperature of 63.4° C. All real-time PCR reactions were performed on the MasterCycler ep Realplex (Eppendorf) using FastStart SYBRGreen Master (Roche).

[2] = tested on: TSP-1 (THBS1) transcription in human cancer HCT15 cells; test: Microarray analysis of TSP-1 (THBS1) transcription in HCT15 cells; format: cell-based; conditions: HCT15 cells in vitro, 24 hours
Excerpt: Total RNAs were extracted and RNA quality analysis was done using Agilent 2100 bioanalyzer and Agilent's RNA Labchip kits. RNAs were labeled with either Cy3 or Cy5 using Agilent's optimized labeling kits and hybridized to Human whole genome 44K Oligo Microarray (Agilent, Palo Alto, Calif.). Slides were scanned using DNA microarry scanner from Agilent and the raw data was extracted using Agilent's image analysis tool (feature extraction software). Normalization and statistical analysis were performed using GeneSpring software. Biological analysis was performed using Biointerpreter software.

[3] = tested on: VEGF expression in A549 (NSCLC) xenografts; test: VEGF expression in A549 xenografts; format: in vivo; conditions: 150 mg/kg, p.o., qdx3
[4] = tested on: TSP-1 transcription in mouse stromal cells in implanted H460 tumors; test: TSP-1 transcription in mouse stromal cells of implanted H460 tumors; format: in vivo; conditions: Compound A 100 mg/kg, Compound B 40 mg/kg, 5 repeated oral doses
Method: […] Each group contains three mice. […] The expression level of TSP-1 mRNA was detected by ABI7700 analyzer using probe/primer pre-mixture reagent (ABI, Cat# Mm01335418 ml) and TaqMan® Universal PCR Master Mix (ABI, Cat# 430-4437) as described in the ABI's protocol.

[5] = tested on: human H460 non-small cell lung tumor, Du145 prostate tumor, TSU-Pr1 prostate tumor, and AZ521 gastric tumor xenograft; test: Xenograft combination studies with taxol (Example 15); format: in vivo, mouse; conditions: oral administration, nude mice with human lung, prostate and gastric tumors
Method: Antitumor studies were done using human H460 non-small cell lung tumor, Du145 prostate tumor, TSU-Pr1 prostate tumor, and AZ521 gastric tumor xenograft model in male BALBc/A nude mice (from Japan Crea Inc., Japan). Male nude mice were used at age 8-10 weeks. Human carcinoma cells were injected subcutaneously in the animal flank and allowed to form solid tumors. Tumor fragments (about 2 mm^3 fragments) were then removed and implanted subcutaneously through a small surgical incision to the right flank of other animals. […] Tumor volumes and gross body weight of animals were monitored twice weekly for up to 2 weeks for AZ-521 and TSU-Pr1, or 4 weeks for H460 and Du145 xenografts. Each experimental group contained 6 animals.

HDAC3 = molecular target: T1, HDAC3 (Homo sapiens, UniProt O15379); test: Fluorescence-based HDAC enzyme assay, recombinant HDAC3; format: biochemical; conditions: recombinant human HDAC enzyme in vitro; read-out: IC50 (μM) HD3
T1 construct: cDNAs corresponding to the full length human HDAC1, 2, 3 and 11 were cloned into pBlueBac4.5 vector; FLAG (C); made in house; host or cells: Sf-9 insect cells (baculovirus)
T1 sequence (O15379 whole entry): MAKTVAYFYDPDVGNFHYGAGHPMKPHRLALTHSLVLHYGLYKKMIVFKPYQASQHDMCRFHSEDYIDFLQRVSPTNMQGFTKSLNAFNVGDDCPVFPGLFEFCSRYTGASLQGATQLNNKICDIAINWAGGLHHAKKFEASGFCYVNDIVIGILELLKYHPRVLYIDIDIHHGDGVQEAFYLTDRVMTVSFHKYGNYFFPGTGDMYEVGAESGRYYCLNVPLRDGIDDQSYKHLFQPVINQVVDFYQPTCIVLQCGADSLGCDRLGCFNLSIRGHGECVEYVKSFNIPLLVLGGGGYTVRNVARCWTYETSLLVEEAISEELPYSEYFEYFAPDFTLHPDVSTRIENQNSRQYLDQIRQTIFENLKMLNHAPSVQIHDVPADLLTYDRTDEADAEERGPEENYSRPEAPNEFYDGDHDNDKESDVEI
Excerpt: cDNAs of human HDAC1-8 and 11 were generated by RT-PCR reactions using primers complementary to the 5′ and 3′ coding sequence of human HDAC gene sequences in GenBank. cDNAs corresponding to the full length human HDAC1, 2, 3 and 11 were cloned into pBlueBac4.5 vector (Invitrogen). The constructs were used to generate recombinant baculoviruses using the Bac-N-Blue™ DNA according to the manufacturer's instructions (Invitrogen). The recombinant HDAC1, 2, 3, 11 proteins produced harbor a FLAG tag at their C-termini. cDNAs encoding truncated versions of HDAC4, 5 and 7 encompassing their deacetylase domains were cloned into pDEST10 as an N-terminal hexahistidine fusion protein and recombinant baculoviruses were generated using the Bac-to-Bac™ Baculovirus expression system (Invitrogen). HDAC6 and 8 were cloned as full length N-terminally His-tagged protein. All HDAC proteins were expressed in insect Sf-9 cells (Spodoptera frugiperdai) upon infection with recombinant baculovirus. HDAC1 enzyme was purified from the Q-sepharose FF column (Amersham Pharmacia Biotech, Baie d'Urfe QC, Canada) followed by an anti-FLAG immunoaffinity column (Sigma). HDAC2, 3 and 11 were purified using Flag-antibody immunoaffinity purification. HDAC4, 5, 6, 7 and 8 were purified using either Ni-NTA resin (QIAGEN Mississauga ON, Canada) or His-Select resin (Sigma) with step washes and elution with different concentrations of imidazole in Buffer containing 25 mM Tris (or NaPO4) pH 8.0, 10% glycerol and 150 mM or 500 mM NaCl.
Recombinant HDAC enzymes were incubated with diluted compounds in assay buffer (25 mM Hepes, pH 8.0, 137 mM NaCl, 1 mM MgCl2 and 2.7 mM KCl) for 10 minutes at ambient temperatures in black 96-well plate. Boc-Lys(Ac)-AMC (for HDAC1, 2, 3, 6, and 8 enzymes), which was purchased from Bachem Biosciences Inc., (King of Prussia, Philadelphia) were added into enzyme-compound mixture and incubated at 37° C. […] After 30 minutes, fluorescence was measured using a fluorometer (SPECTRAMAX GeminiXS, Molecular Devices, Sunnylvale, Calif.). […]

[6] = tested on: human Du145 prostate tumor xenograft; test: Du145 prostate tumor xenograft, combination with taxol; format: in vivo, mouse; conditions: Du145, oral once daily 14 days with taxol 60 mg/kg i.v.
Method: Antitumor studies were done using human Du145 prostate tumor xenograft model in male BALBc/A nude mice (from Japan Crea Inc., Japan). Male nude mice were used at age 8-10 weeks. Human carcinoma cells were injected subcutaneously in the animal flank and allowed to form solid tumors. Tumor fragments (about 2 mm^2 fragments) were then removed and implanted subcutaneously to the right flank of other animals. When the tumor sizes reached about 100 to 200 mm^3, recipient animals were treated with Compound D, Compound E, Compound F, Compound G or Compound H (suspended with 0.5% HPMC) by oral administration alone, or taxol by i.v. injection (60 mg/kg), or combination of taxol with oral administration of Compound D, Compound E, Compound F, Compound G, Compound H. Typically, taxol was administered once per week by iv injection on the first day as a single administration, while Compound D, Compound E, Compound F, Compound G, or Compound H were administered once daily for 14 days. Tumor volumes and gross body weight of animals were monitored twice weekly for up to 2 weeks. Each experimental group contained at least 6 animals.

SMILES: Nc1ccccc1NC(=O)c1ccc(CNc2nccc(-c3cccnc3)n2)cc1 [Compound A]
- MT3 transcription [1]: dose-dependent induction
- TSP-1 (THBS1) transcription [2]: induction
- VEGF expression [3]: suppression
- TSP-1 transcription in mouse stromal cells [4]: induction
- antitumor activity of taxol [5]: Potentiation

SMILES: Nc1ccccc1NC(=O)c1ccc(N2CC[C@H](Nc3cccnc3)C2)cc1 [Compound B]
- TSP-1 (THBS1) transcription [2]: induction
- IC50 (HDAC3): 0.3 µM
- TSP-1 transcription in mouse stromal cells [4]: induction
- antitumor activity of taxol [5]: Potentiation

SMILES: Nc1ccc(-c2ccccc2)cc1NC(=O)c1ccc(N2CC[C@H](N)C2)cc1 [Compound D]
- antitumor activity of taxol [6]: Potentiation
- IC50 (HDAC3): 9 µM

SMILES: Nc1ccc(-c2ccccc2)cc1NC(=O)c1ccc(N2CCC(N)CC2)cc1 [Compound E]
- antitumor activity of taxol [6]: Potentiation

SMILES: CN1CCN(c2ccc(C(=O)Nc3cc(-c4ccccn4)ccc3N)cc2)CC1 [Compound F]
- antitumor activity of taxol [6]: Potentiation

SMILES: CN1CCN(c2ccc(C(=O)Nc3cc(-c4ccncc4)ccc3N)cc2)CC1 [Compound G]
- antitumor activity of taxol [6]: Potentiation

SMILES: CC(C)N1CCN(c2ccc(C(=O)Nc3cc(-c4ccncc4)ccc3N)cc2)CC1 [Compound H]
- antitumor activity of taxol [6]: Potentiation
